Reference: ChEMBL document CHEMBL5674850, “ASAP - Solubility” (2024)
Values after ≈ are worked out from the molar mass of the structure shown.

Test: Kinetic solubility of compound by measuring concentration at pH 7.4 in saturated PBS buffer by UV LCMS/MS using calibration curves. The assay has been performed by Enamine biological services, Bienta Ltd.The protocol is publicly available: dx.doi.org/10.17504/protocols.io.j8nlk8y41l5r/v1
Assay type: physicochemical
Conditions: PBS buffer

Compound | solubility kinetic
COCCNC(=O)[C@H](Nc1ccc2c(c1)CNC2)c1cc(Cl)cc(C2CC2)c1 | 320 µM (≈ 128 µg/mL)
CC(C)NC(=O)[C@H](Nc1ccc2c(c1)CNC2)c1cc(Cl)cc2[nH]ncc12 | 311 µM (≈ 119 µg/mL)
O=C(Nc1ccc2c(c1)CNC2)c1cc(Cl)cc2c1CCC2 | 335 µM (≈ 105 µg/mL)
CNC(=O)[C@H](Nc1ccc2c(c1)CNC2)c1cc(Cl)cc(C2CC2)c1 | 358 µM (≈ 127 µg/mL)
O=C1Cc2c(cccc2C(=O)Nc2ccc3c(c2)CNC3)N1 | 152 µM (≈ 44.6 µg/mL)
O=C(Nc1ccc2c(c1)CNC2)c1cc(Br)cc2[nH]c(-c3ccccc3)nc12 | ≤ 2 µM
Cn1ncc2c(C(=O)Nc3ccc4c(c3)CNC4)cc(Br)cc21 | 392 µM (≈ 146 µg/mL)
O=C(Nc1ccc2c(c1)CNC2)c1cc(Cl)cc2ccncc12 | 181 µM (≈ 58.6 µg/mL)
O=C(/C=C/c1ccccc1)C(=O)N1CCN(CCc2ccccc2)CC1 | 239 µM (≈ 83.3 µg/mL)
CCCC[C@@H](NC(=O)OC(C)(C)C)C(=O)N[C@@H](C(=O)NCc1ccc(CN)cc1)c1ccc(OCc2ccccc2)cc1 | 143 µM (≈ 84.2 µg/mL)
CC(C)NC(=O)[C@H](Nc1ccc2c(c1)CNC2)c1cc(Cl)cc2[nH]c(-c3ccccc3)nc12 | 154 µM (≈ 70.8 µg/mL)
NCc1cccc([C@@H]2C[C@H]2c2cc(Cl)cc(NC(=O)OCc3ccccc3)c2)c1 | 50 µM (≈ 20.3 µg/mL)
O=C(Nc1ccc2c(c1)CNC2)c1cc(F)cc(-c2cn[nH]c2)c1 | 185 µM (≈ 59.6 µg/mL)
O=C(Nc1ccc2c(c1)CNC2)c1cccc2[nH]c(C(F)(F)F)cc12 | 372 µM (≈ 128 µg/mL)
O=C(Nc1cc(Cl)cc(C(=O)Nc2cccc(C3CCNCC3)c2)c1)OCc1ccccc1 | 126 µM (≈ 58.5 µg/mL)
O=C(Nc1ccc2c(c1)CNC2)c1cc(Cl)cc2cn[nH]c12 | 184 µM (≈ 57.5 µg/mL)
N#Cc1cccc(-c2nc3c(C(=O)Nc4ccc5c(c4)CNC5)cc(F)cc3[nH]2)c1 | 3 µM (≈ 1.19 µg/mL)
N#C[C@H](Nc1cccc(-c2nn[nH]n2)c1)c1cc(Cl)cc(NC(=O)OCc2ccccc2)c1 | 344 µM (≈ 158 µg/mL)
CNC(=O)[C@H](Nc1ccc2c(c1)CNC2)c1cc(Cl)cc2[nH]c(-c3ccccc3)nc12 | 178 µM (≈ 76.9 µg/mL)
N#C[C@H](Nc1ccc2c(c1)CNC2)c1cc(Cl)cc2[nH]ncc12 | 297 µM (≈ 96.2 µg/mL)
O=C(N[C@H]1[C@H]2CCCCC[C@H]2[C@H]1C(=O)Nc1cccc(C2CCNCC2)c1)OCc1ccccc1 | 49 µM (≈ 23.3 µg/mL)

Compound | solubility kinetic
NCc1cccc(NC(=O)C[C@@H](NC(=O)OCc2ccccc2)c2ccc(OCc3ccccc3)cc2)c1 | 17 µM (≈ 8.66 µg/mL)
NCc1cccc(NC(=O)[C@@H](NC(=O)OCc2ccccc2)c2ccc(OCc3ccccc3)cc2)c1 | 23 µM (≈ 11.4 µg/mL)
NCc1cccc(NC(=O)C[C@H](NC(=O)OCc2ccccc2)c2ccc(OCc3ccccc3)c(Br)c2)c1 | 21 µM (≈ 12.4 µg/mL)
O=C(O)COc1cccc(NC(=O)c2cc(Cl)cc(NC(=O)OCc3ccccc3)c2)c1 | 360 µM (≈ 164 µg/mL)
O=C(NCCCF)[C@H](Nc1ccc2c(c1)CNC2)c1cc(Cl)cc(C2CC2)c1 | 394 µM (≈ 158 µg/mL)
COCc1cc(Cl)cc([C@H](Nc2ccc3c(c2)CNC3)C(=O)NCC(F)F)c1 | 192 µM (≈ 78.7 µg/mL)
Cc1c(C(=O)Nc2cc(-c3cccnc3)ccn2)cc(C2CC2)n1C | 176 µM (≈ 58.5 µg/mL)
CO[C@H]1C[C@H](n2ncc3c(C(=O)Nc4ccc5c(c4)CNC5)cc(Cl)cc32)C1 | 340 µM (≈ 135 µg/mL)
Cn1cc2c(C(=O)Nc3ccc4c(c3)CNC4)cc(F)cc2n1 | 309 µM (≈ 95.9 µg/mL)
NCc1cccc(NC(=O)c2cccn3cc(CN4CCCC4)nc23)c1 | 332 µM (≈ 116 µg/mL)
CNC(=O)[C@H](Nc1cccc(-c2nn[nH]n2)c1)c1cc(Cl)cc2[nH]ncc12 | 347 µM (≈ 133 µg/mL)
O=C(O)Cn1ncc2cc(-c3cc(Cl)cc(NC(=O)OCc4ccccc4)c3)ccc21 | 131 µM (≈ 57.1 µg/mL)
NCc1cc(C(=O)O)cc([C@@H]2C[C@H]2c2cc(Cl)cc(NC(=O)OCc3ccccc3)c2)c1 | 52 µM (≈ 23.4 µg/mL)
CCCCNC(=O)[C@H](Nc1ccc2c(c1)CNC2)c1cc(Cl)cc(C2CC2)c1 | 379 µM (≈ 151 µg/mL)
N#Cc1cc2c(cc1NC(=O)c1cc(F)cc3[nH]ncc13)CNC2 | 191 µM (≈ 61.4 µg/mL)
COc1cc(Cl)cc([C@H](Nc2ccc3c(c2)CNC3)C(=O)NCC(F)F)c1 | ≥ 400 µM
O=C(Nc1cc(Br)c2c(c1)CNC2)c1cc(F)cc2[nH]ncc12 | 4 µM (≈ 1.5 µg/mL)
CNC(=O)[C@H](Nc1cc(CN)cc(C(=O)O)c1)c1cc(Cl)cc(C2CC2)c1 | 335 µM (≈ 130 µg/mL)
O=C1Cc2c(cc(F)cc2C(=O)Nc2ccc3c(c2)CNC3)N1 | 368 µM (≈ 115 µg/mL)
CC(C)CNC(=O)c1cc(Cl)c(F)cc1NS(=O)(=O)c1ccc(Oc2ccccc2Cl)cc1 | 4 µM (≈ 2.05 µg/mL)
O=C(Nc1cc(Cl)cc(C(=O)Nc2cccc(-c3nnn[nH]3)c2)c1)OCc1ccccc1 | 65 µM (≈ 29.2 µg/mL)

Compound | solubility kinetic
CNC(=O)[C@H](Nc1cc(Cl)cc(NC(=O)OCc2ccccc2)c1)c1cccc(-c2nn[nH]n2)c1 | 333 µM (≈ 164 µg/mL)
Cn1c(=O)[nH]c2c(C(=O)Nc3ccc4c(c3)CNC4)cc(Br)cc21 | 161 µM (≈ 62.3 µg/mL)
O=C(Nc1ccc2c(c1)CNC2)c1cc(F)cc2c1CCC2 | 187 µM (≈ 55.4 µg/mL)
NCc1cccc(NC(=O)c2cc(Cl)cc(NC(=O)OCc3ccccc3)c2)c1 | 89 µM (≈ 36.5 µg/mL)
CCc1cc(C(=O)Nc2cccc(CN)c2)sc1-c1ccc(Cl)cc1 | 7 µM (≈ 2.6 µg/mL)
O=C(NCC(F)F)[C@H](Nc1ccc2c(c1)CNC2)c1cc(Cl)cc2ccoc12 | 187 µM (≈ 75.9 µg/mL)
O=C(NCC(F)(F)F)c1cc(Cl)c(F)cc1NS(=O)(=O)c1ccc(Oc2ccccc2Cl)cc1 | 14 µM (≈ 7.52 µg/mL)
O=C(O)c1cc(Cl)c(F)cc1S(=O)(=O)Nc1ccc(Oc2ccccc2Cl)cc1 | 396 µM (≈ 181 µg/mL)
O=C(Nc1ccc2c(c1)CNC2)c1cc(F)cc2[nH]c(-c3ccc(F)cc3)nc12 | 6 µM (≈ 2.34 µg/mL)
NCc1cccc(NC(=O)c2cc(OCc3ccccc3)ccc2CNC(=O)OCc2ccccc2)c1 | 14 µM (≈ 6.94 µg/mL)
Cc1cc(-c2ccc([C@@H](NC(=O)OCc3ccccc3)C(=O)Nc3cccc(CN)c3)cc2)cs1 | 8 µM (≈ 3.88 µg/mL)
COc1cc(-c2cc(NC(=O)c3cc(F)cc4[nH]ncc34)cc3c2CNC3)ccn1 | 180 µM (≈ 72.6 µg/mL)
CNC(=O)c1cc(Cl)c(F)cc1NS(=O)(=O)c1ccc(Oc2ccccc2Cl)cc1 | 49 µM (≈ 23 µg/mL)
N#C[C@H](Nc1cccc(C(=O)O)c1)c1cc(Cl)cc2[nH]ncc12 | 112 µM (≈ 36.6 µg/mL)
CC(C)c1nc2c(C(=O)Nc3cccc(CN)c3)cccc2[nH]1 | 316 µM (≈ 97.4 µg/mL)
O=C(Nc1cc2c(cc1Br)CNC2)c1cc(F)cc2[nH]ncc12 | 47 µM (≈ 17.6 µg/mL)
O=C(O)c1cc(Cl)ccc1NS(=O)(=O)c1ccc(Oc2ccccc2Cl)cc1 | 369 µM (≈ 162 µg/mL)
O=C(Nc1cc2c(c(C3=CCS(=O)(=O)CC3)c1)CNC2)c1cc(F)cc2[nH]ncc12 | 141 µM (≈ 60.1 µg/mL)
O=C(Nc1ccc2c(c1)CNC2)c1cc(Cl)cc2c1cnn2C1CCC1 | 172 µM (≈ 63.1 µg/mL)
O=C(O)c1cc(Cl)ccc1S(=O)(=O)NC1CCN(c2nc(C3CC3)cc(C(F)(F)F)n2)CC1 | 380 µM (≈ 192 µg/mL)
O=C(Nc1cc2c(c(C3=CCOCC3)c1)CNC2)c1cc(F)cc2[nH]ncc12 | 157 µM (≈ 59.4 µg/mL)

Results, then the molecule that gave them:

solubility kinetic | Compound
374 µM (≈ 148 µg/mL) | N#CCCNC(=O)[C@H](Nc1ccc2c(c1)CNC2)c1cc(Cl)cc(C2CC2)c1
35 µM (≈ 14.8 µg/mL) | O=C(Nc1cc(Cl)cc(C(=O)Nc2ccc3c(c2)CNC3)c1)OCc1ccccc1
172 µM (≈ 72.2 µg/mL) | CN(c1ccc2c(c1)CNC2)[C@H](C(=O)NCC(F)F)c1cc(Cl)cc(C2CC2)c1
66 µM (≈ 26.9 µg/mL) | O=C(Nc1cc2c(c(-c3c[nH]c(=O)c(F)c3)c1)CNC2)c1cc(F)cc2[nH]ncc12
≥ 400 µM | O=C(NCC(F)F)[C@H](Nc1ccc2c(c1)CNC2)c1cc(Br)cc2nc[nH]c12
375 µM (≈ 109 µg/mL) | NCc1cccc(NC(=O)c2cc(Cl)cc(CN)c2)c1
397 µM (≈ 168 µg/mL) | O=C(O)c1cc(Cl)ccc1NS(=O)(=O)c1ccc(-c2ccccc2Cl)cc1
325 µM (≈ 125 µg/mL) | COc1cc(Cc2c(-c3ccc(F)cc3)noc2C)nc(N2CCNCC2)n1
356 µM (≈ 150 µg/mL) | O=C(Nc1cc(Cl)cc(-c2ccc3[nH]c(C(=O)O)cc3c2)c1)OCc1ccccc1
392 µM (≈ 169 µg/mL) | CCOc1cccc(-c2ccc(S(=O)(=O)Nc3ccc(Cl)cc3C(=O)O)cc2)c1
78 µM (≈ 39.7 µg/mL) | NCc1cccc(CNC(=O)[C@@H](NC(=O)OCc2ccccc2)c2ccc(OCc3ccccc3)cc2)c1
88 µM (≈ 37.3 µg/mL) | NCCc1ccc(NC(=O)c2cc(Cl)cc(NC(=O)OCc3ccccc3)c2)cc1
26 µM (≈ 10.7 µg/mL) | O=C(Nc1cc(Cl)cc(C(=O)Nc2n[nH]c3c2CNC3)c1)OCc1ccccc1
356 µM (≈ 120 µg/mL) | C=CC[C@H]1NCc2cc(NC(=O)c3cc(F)cc4[nH]ncc34)ccc21
119 µM (≈ 41.4 µg/mL) | c1ccc2sc(C3CCN(Cc4c[nH]c5ccccc45)CC3)nc2c1
25 µM (≈ 11.3 µg/mL) | CNC(=O)c1cc(Cl)ccc1NS(=O)(=O)c1ccc(Oc2ccccc2Cl)cc1
394 µM (≈ 170 µg/mL) | Cc1cc(OCc2ccccc2)ccc1NS(=O)(=O)c1ccc(Cl)cc1C(=O)O
189 µM (≈ 63.6 µg/mL) | O=C(Nc1cc2c(cc1C1CC1)CNC2)c1cc(F)cc2[nH]ncc12
≥ 400 µM | Cc1cc([C@H](Nc2ccc3c(c2)CNC3)C(=O)NCC(F)F)cc(C(F)(F)F)c1
≥ 400 µM | O=C(NCC(F)F)[C@H](Nc1ccc2c(c1)CNC2)c1cc(Cl)cc2c1CCC2
135 µM (≈ 47.6 µg/mL) | OCC#C[C@H](Nc1ccc2c(c1)CNC2)c1cc(Cl)cc2[nH]ncc12
60 µM (≈ 30.3 µg/mL) | CC[C@@H](Cc1nnn[nH]1)c1ccc(NC(=O)c2cc(Cl)cc(NC(=O)OCc3ccccc3)c2)cc1
56 µM (≈ 27.8 µg/mL) | NCc1cccc(NC(=O)CN(C(=O)OCc2ccccc2)c2ccc(OCc3ccccc3)cc2)c1
381 µM (≈ 147 µg/mL) | COc1cc(C#N)cc([C@H](Nc2ccc3c(c2)CNC3)C(=O)NCC(F)F)c1
332 µM (≈ 158 µg/mL) | C=CC[C@H](Nc1cccc(-c2nn[nH]n2)c1)c1cc(Cl)cc(NC(=O)OCc2ccccc2)c1
181 µM (≈ 64.2 µg/mL) | CC(C)n1cc2c(C(=O)Nc3ccc4c(c3)CNC4)cc(Cl)cc2n1
136 µM (≈ 39.9 µg/mL) | O=C1Cc2cc(C(=O)Nc3ccc4c(c3)CNC4)ccc2N1
352 µM (≈ 145 µg/mL) | CNC(=O)[C@H](Nc1cc(CN)cc(-c2nn[nH]n2)c1)c1cc(Cl)cc(C2CC2)c1
107 µM (≈ 49.7 µg/mL) | O=C(Nc1cc(Cl)cc(C(=O)Nc2cccc(-n3nn[nH]c3=O)c2)c1)OCc1ccccc1

Same assay, conditions: buffer

Solubility (mean) | Compound
134 µM (≈ 61.6 µg/mL) | CC(C)NC(=O)[C@H](Nc1ccc2c(c1)CNC2)c1cc(Cl)cc2[nH]c(-c3ccccc3)nc12
184 µM (≈ 59.3 µg/mL) | O=C(Nc1ccc2c(c1)CNC2)c1cc(F)cc(-c2cn[nH]c2)c1
193 µM (≈ 62 µg/mL) | N#Cc1cc2c(cc1NC(=O)c1cc(F)cc3[nH]ncc13)CNC2
